# Measured values published in ChEMBL document CHEMBL4308841, “Synthesis, in vitro antiproliferative activity, and kinase inhibitory effects of pyrazole-containing diarylureas and diarylamides” (Eur J Med Chem, 2018).
# Assays:
# [1] = test system: SK-MEL-5; experiment: Growth inhibition of human SK-MEL-5 cells assessed as cell growth at 0.1 uM incubated for 48 hrs by sulforhodamine B assay relative to control; type: functional; details: SK-MEL-5, 48 h, read-out: Activity
# [2] = test system: OVCAR-8; experiment: Growth inhibition of human OVCAR8 cells assessed as cell growth at 1 uM incubated for 48 hrs by sulforhodamine B assay relative to control; type: functional; details: OVCAR-8, 48 h, read-out: Activity
# [3] = test system: OVCAR-5; experiment: Growth inhibition of human OVCAR5 cells assessed as cell growth at 0.01 uM incubated for 48 hrs by sulforhodamine B assay relative to control; type: functional; details: OVCAR-5, 48 h, read-out: Activity
# [4] = test system: HCT-15; experiment: Growth inhibition of human HCT15 cells assessed as cell growth at 1 uM incubated for 48 hrs by sulforhodamine B assay relative to control; type: functional; details: HCT-15, 48 h, read-out: Activity
# [5] = test system: UACC-62; experiment: Growth inhibition of human UACC62 cells incubated for 48 hrs by sulforhodamine B assay; type: functional, cell-based; details: UACC-62, 48 h
# [6] = test system: UO-31; experiment: Growth inhibition of human UO31 cells assessed as cell growth at 0.1 uM incubated for 48 hrs by sulforhodamine B assay relative to control; type: functional; details: UO-31, 48 h, read-out: Activity
# [7] = test system: SK-MEL-5; experiment: Growth inhibition of human SK-MEL-5 cells assessed as cell growth at 1 uM incubated for 48 hrs by sulforhodamine B assay relative to control; type: functional; details: SK-MEL-5, 48 h, read-out: Activity
# [8] = test system: HCT-15; experiment: Growth inhibition of human HCT15 cells incubated for 48 hrs by sulforhodamine B assay; type: functional, cell-based; details: HCT-15, 48 h
# [9] = test system: A498; experiment: Growth inhibition of human A498 cells assessed as cell growth at 0.1 uM incubated for 48 hrs by sulforhodamine B assay relative to control; type: functional; details: A498, 48 h, read-out: Activity
# [10] = test system: ACHN; experiment: Growth inhibition of human ACHN cells incubated for 48 hrs by sulforhodamine B assay; type: functional, cell-based
# [11] = test system: SN12C; experiment: Growth inhibition of human SN12C cells assessed as cell growth at 100 uM incubated for 48 hrs by sulforhodamine B assay relative to control; type: functional; details: read-out: Activity
# [12] = test system: A498; experiment: Growth inhibition of human A498 cells assessed as cell growth at 1 uM incubated for 48 hrs by sulforhodamine B assay relative to control; type: functional; details: A498, 48 h, read-out: Activity
# [13] = test system: PC-3; experiment: Growth inhibition of human PC3 cells assessed as cell growth at 1 uM incubated for 48 hrs by sulforhodamine B assay relative to control; type: functional; details: PC-3, 48 h, read-out: Activity
# [14] = test system: SF-268; experiment: Growth inhibition of human SF268 cells assessed as cell growth at 0.01 uM incubated for 48 hrs by sulforhodamine B assay relative to control; type: functional; details: SF-268, 48 h, read-out: Activity
# [15] = test system: NCI-H522; experiment: Growth inhibition of human NCI-H522 cells assessed as cell growth at 100 uM incubated for 48 hrs by sulforhodamine B assay relative to control; type: functional; details: NCI-H522, 48 h, read-out: Activity
# [16] = test system: MDA-MB-468; experiment: Growth inhibition of human MDA-MB-468 cells assessed as cell growth at 100 uM incubated for 48 hrs by sulforhodamine B assay relative to control; type: functional; details: MDA-MB-468, 48 h, read-out: Activity
# [17] = test system: LOX IMVI; experiment: Growth inhibition of human LOXIMVI cells assessed as cell growth at 0.1 uM incubated for 48 hrs by sulforhodamine B assay relative to control; type: functional; details: read-out: Activity
# [18] = test system: SN12C; experiment: Growth inhibition of human SN12C cells assessed as cell growth at 0.1 uM incubated for 48 hrs by sulforhodamine B assay relative to control; type: functional; details: read-out: Activity
# [19] = test system: OVCAR-4; experiment: Growth inhibition of human OVCAR4 cells assessed as cell growth at 1 uM incubated for 48 hrs by sulforhodamine B assay relative to control; type: functional; details: OVCAR-4, 48 h, read-out: Activity
# [20] = test system: MOLT-4; experiment: Growth inhibition of human MOLT4 cells assessed as cell growth at 0.01 uM incubated for 48 hrs by sulforhodamine B assay relative to control; type: functional; details: MOLT-4, 48 h, read-out: Activity
# [21] = test system: CCRF-CEM; experiment: Growth inhibition of human CCRF-CEM cells assessed as cell growth at 100 uM incubated for 48 hrs by sulforhodamine B assay relative to control; type: functional; details: read-out: Activity
# [22] = test system: M14; experiment: Growth inhibition of human M14 cells assessed as cell growth at 1 uM incubated for 48 hrs by sulforhodamine B assay relative to control; type: functional; details: M14, 48 h, read-out: Activity
# [23] = test system: COLO 205; experiment: Growth inhibition of human COLO205 cells incubated for 48 hrs by sulforhodamine B assay; type: functional, cell-based; details: COLO 205, 48 h
# [24] = test system: OVCAR-5; experiment: Growth inhibition of human OVCAR5 cells assessed as cell growth at 100 uM incubated for 48 hrs by sulforhodamine B assay relative to control; type: functional; details: OVCAR-5, 48 h, read-out: Activity
# [25] = test system: NCI-H23; experiment: Growth inhibition of human NCI-H23 cells assessed as cell growth at 1 uM incubated for 48 hrs by sulforhodamine B assay relative to control; type: functional; details: NCI-H23, 48 h, read-out: Activity
# [26] = test system: SK-MEL-5; experiment: Growth inhibition of human SK-MEL-5 cells incubated for 48 hrs by sulforhodamine B assay; type: functional, cell-based; details: SK-MEL-5, 48 h
# [27] = test system: SK-MEL-5; experiment: Growth inhibition of human SK-MEL-5 cells assessed as cell growth at 0.01 uM incubated for 48 hrs by sulforhodamine B assay relative to control; type: functional; details: SK-MEL-5, 48 h, read-out: Activity
# [28] = test system: UACC-62; experiment: Growth inhibition of human UACC62 cells assessed as cell growth at 0.1 uM incubated for 48 hrs by sulforhodamine B assay relative to control; type: functional; details: UACC-62, 48 h, read-out: Activity
# [29] = test system: RPMI-8226; experiment: Growth inhibition of human RPMI8226 cells assessed as cell growth at 1 uM incubated for 48 hrs by sulforhodamine B assay relative to control; type: functional; details: RPMI-8226, 48 h, read-out: Activity
# [30] = test system: Malme-3M; experiment: Growth inhibition of human MALME-3M cells incubated for 48 hrs by sulforhodamine B assay; type: functional, cell-based
# [31] = read-out: LC50 (the source's name)
# [32] = read-out: pLC50 (the source's name) (converted)
smiles,measurement,setting,value
O=C(Nc1cccc(-n2cc(-c3ccncc3)c(-c3cc(O)cc(Cl)c3)n2)c1)c1cc(C(F)(F)F)cc(C(F)(F)F)c1,growth at 0.1 µM,[1],95%
same,growth at 1 µM,[2],91%
same,growth at 0.01 µM,[3],92%
same,growth at 1 µM,[4],79%
same,IC50,[5],3.79 µM
same,GI50,[5]; read-out: GI50,3.79 µM
same,CC50,[5]; [31],> 100 µM
same,TGI,[5]; read-out: TGI,22.4 µM
same,GI50,[5]; read-out: pGI50 (converted),3.8 µM
same,CC50,[5]; [32],> 100 µM
same,TGI,[5]; read-out: pTGI (converted),28.2 µM
same,growth at 0.1 µM,[6],70%
same,growth at 1 µM,[7],90%
same,GI50,[8]; read-out: GI50,2.5 µM
same,CC50,[8]; [31],> 100 µM
same,TGI,[8]; read-out: TGI,14.7 µM
same,GI50,[8]; read-out: pGI50 (converted),2.57 µM
same,CC50,[8]; [32],> 100 µM
same,TGI,[8]; read-out: pTGI (converted),14.8 µM
same,growth at 0.1 µM,[9],87%
same,GI50,[10]; read-out: GI50,4.96 µM
same,CC50,[10]; [31],> 100 µM
same,TGI,[10]; read-out: TGI,> 100 µM
same,GI50,[10]; read-out: pGI50 (converted),5.01 µM
same,CC50,[10]; [32],> 100 µM
same,TGI,[10]; read-out: pTGI (converted),> 100 µM
same,growth at 100 µM,[11],17%
same,growth at 1 µM,[12],78%
same,growth at 1 µM,[13],78%
same,growth at 0.01 µM,[14],92%
same,growth at 100 µM,[15],-18%
same,growth at 100 µM,[16],2%
same,growth at 0.1 µM,[17],102%
same,growth at 0.1 µM,[18],98%
same,growth at 1 µM,[19],101%
same,growth at 0.01 µM,[20],99%
same,growth at 100 µM,[21],1%
same,growth at 1 µM,[22],85%
same,GI50,[23]; read-out: GI50,2.32 µM
same,CC50,[23]; [31],> 100 µM
same,TGI,[23]; read-out: TGI,57.4 µM
same,GI50,[23]; read-out: pGI50 (converted),2.34 µM
same,CC50,[23]; [32],> 100 µM
same,TGI,[23]; read-out: pTGI (converted),5.75 µM
same,growth at 100 µM,[24],-32%
same,growth at 1 µM,[25],98%
same,GI50,[26]; read-out: GI50,2.51 µM
same,CC50,[26]; [31],> 100 µM
same,TGI,[26]; read-out: TGI,86.7 µM
same,GI50,[26]; read-out: pGI50 (converted),2.63 µM
same,CC50,[26]; [32],> 100 µM
same,TGI,[26]; read-out: pTGI (converted),8.91 µM
same,growth at 0.01 µM,[27],97%
same,growth at 0.1 µM,[28],97%
same,growth at 1 µM,[29],53%
same,GI50,[30]; read-out: GI50,3.59 µM
same,CC50,[30]; [31],> 100 µM
same,TGI,[30]; read-out: TGI,94.4 µM
same,GI50,[30]; read-out: pGI50 (converted),3.72 µM
same,CC50,[30]; [32],> 100 µM
same,TGI,[30]; read-out: pTGI (converted),95.5 µM
COc1cc(Cl)cc(-c2nn(-c3cccc(NC(=O)c4ccc(N5CCOCC5)c(C(F)(F)F)c4)c3)cc2-c2ccncc2)c1,growth at 0.1 µM,[1],99%
same,growth at 1 µM,[2],56%
same,growth at 0.01 µM,[3],94%
same,growth at 1 µM,[4],52%
same,IC50,[5],9.1 µM
same,GI50,[5]; read-out: GI50,9.1 µM
same,CC50,[5]; [31],> 100 µM
same,TGI,[5]; read-out: TGI,> 100 µM
same,GI50,[5]; read-out: pGI50 (converted),9.12 µM
same,CC50,[5]; [32],> 100 µM
same,TGI,[5]; read-out: pTGI (converted),> 100 µM
same,growth at 0.1 µM,[6],87%
same,growth at 1 µM,[7],50%
same,GI50,[8]; read-out: GI50,3.25 µM
same,CC50,[8]; [31],> 100 µM
same,TGI,[8]; read-out: TGI,> 100 µM
same,GI50,[8]; read-out: pGI50 (converted),3.24 µM
same,CC50,[8]; [32],> 100 µM
same,TGI,[8]; read-out: pTGI (converted),> 100 µM
same,growth at 0.1 µM,[9],85%
same,GI50,[10]; read-out: GI50,7.31 µM
same,CC50,[10]; [31],> 100 µM
same,TGI,[10]; read-out: TGI,> 100 µM
same,GI50,[10]; read-out: pGI50 (converted),7.24 µM
same,CC50,[10]; [32],> 100 µM
same,TGI,[10]; read-out: pTGI (converted),> 100 µM
same,growth at 100 µM,[11],55%
same,growth at 1 µM,[12],55%
same,growth at 1 µM,[13],73%
same,growth at 0.01 µM,[14],95%
same,growth at 100 µM,[15],31%
same,growth at 100 µM,[16],17%
same,growth at 0.1 µM,[17],95%
same,growth at 0.1 µM,[18],95%
same,growth at 1 µM,[19],94%
same,growth at 0.01 µM,[20],100%
same,growth at 100 µM,[21],18%
same,growth at 1 µM,[22],58%
same,GI50,[23]; read-out: GI50,2.22 µM
same,CC50,[23]; [31],> 100 µM
same,TGI,[23]; read-out: TGI,> 100 µM
same,GI50,[23]; read-out: pGI50 (converted),22.4 µM
same,CC50,[23]; [32],> 100 µM
same,TGI,[23]; read-out: pTGI (converted),> 100 µM
same,growth at 100 µM,[24],38%
same,growth at 1 µM,[25],96%
same,GI50,[26]; read-out: GI50,1.55 µM
same,CC50,[26]; [31],> 100 µM
same,TGI,[26]; read-out: TGI,> 100 µM
same,GI50,[26]; read-out: pGI50 (converted),16.6 µM
same,CC50,[26]; [32],> 100 µM
same,TGI,[26]; read-out: pTGI (converted),> 100 µM
same,growth at 0.01 µM,[27],97%
same,growth at 0.1 µM,[28],91%
same,growth at 1 µM,[29],59%
same,GI50,[30]; read-out: GI50,2.53 µM
same,CC50,[30]; [31],> 100 µM
same,TGI,[30]; read-out: TGI,> 100 µM
same,GI50,[30]; read-out: pGI50 (converted),28.2 µM
same,CC50,[30]; [32],> 100 µM
same,TGI,[30]; read-out: pTGI (converted),> 100 µM
